From patent US20230338297A1, “Encapsulated Agents that Bind to MCT-1” (THE JOHNS HOPKINS UNIVERSITY, priority 2020, published 2023) come the findings set out here.

SMILES strings stand for the structures.

Series [1] is described as follows: stability of CD-3BP complexes and free 3BP in sera, residual 3BP by cell toxicity assay (HCT-116). Format: in vitro ADME, human. The note with it: incubated with sera at 37° C. for up to 8 hours. The text has this:
However, how microencapsulation in CD alters the solubility and stability of 3BP and whether chemical modifications of CDs can alter physicochemical characteristics of the drug remains unclear. To address these questions and clarify the biological effect of microencapsulation, an assay was designed to estimate the stability of various CD-3BP complexes when compared to free 3BP in human sera.
Two different types of complexes, the previously used sCD-3BP (Chapiro, J. et al., Clinical cancer research: An official journal of the American Association for Cancer Research 20, 6406-6417, doi:10.1158/1078-0432.ccr-14-1271 (2014)) and newly generated HPCD-3BP were compared side-by-side. […] Aliquots were collected at various time points and assessed for residual 3BP by a cell toxicity assay. […]
Free 3BP, sCD-3BP and HPCD-3BP were incubated at various concentrations (12.5 μM, 25 μM, 50 μM, 100 μM and 200 μM) with 90 μL of mouse sera at 37° C. for up to 8 hours. […] Un-degraded biologically active 3BP at each time was then assessed by a cell toxicity assay. […] Cell death was measured by imaging cells after 72 hours using the IncuCyte® Live Cell-Analysis System (Essen Bioscience) and using the CellTox™ Green Cytotoxicity Assay (Promega), following the manufacturer's recommendation. […]

The subject of another series is DLD-1 parental cells. The experiment in a line: effect of MCT-1 loss on sensitivity: DLD-1 parental cells. The series is classed as cell-based, human. The note with it: 0-200 uM. As for the experimental part: (§1) The Alt-R CRISPR system (Integrated DNA Technologies, IDT) was used to delete SLC16A1, the gene encoding for the MCT-1 protein, in the DLD-1 and MiaPaCa-2 cell lines. The gRNA sequence was designed using CHOPCHOP v.3 12. Briefly, Alt-R CRISPR Cas9 crRNAs ([…], IDT; SEQ ID NO:1) and Alt-R CRISPR-Cas9 tracrRNA (1072532, IDT) were re-suspended at 100 μM with Nuclease-Free Duplex Buffer (IDT). The crRNAs and tracrRNA were mixed at a 1:1 molar ratio and denatured for 5 min at 95° C., followed by slow cooling to room temperature to duplex prior to mixing with Cas9 Nuclease (1081059, IDT) at a 1.2:1 molar ratio for 15 min. Forty pmoles of the Cas9 ribonucleoprotein (RNP) containing tracrRNA/MCT-1 crRNA duplex were mixed with 2×10^5 DLD-1 cells in 20 μL of OptiMEM (31985088, ThermoFisher Scientific). This mixture was loaded into a 0.1 cm cuvette (1652089, Bio Rad) and electroporated at 120 V for 16 ms using an ECM 2001 (Harvard Apparatus). Cells were immediately transferred to complete growth medium and cultured for one week. Upon reaching confluence, polyclonal pools were plated at a density of 0.5 to 2 cells per well in 96-well plates and cultured for 3 weeks. Single colonies were transferred into 2 replica 96-well plates. […]

A further series concerns DLD-1 MCT-1(-) cells. The experiment in a line: effect of MCT-1 loss on sensitivity: DLD-1 MCT-1(-) knock-out cells. The series is classed as cell-based, human. The following applies: even at 200 uM. The procedure:
as §1

A further series deals with MiaPaCa-2 cells. Put plainly: rapid induction of cell death, timed exposure and washout of MiaPaCa-2 cells. Format: cell-based, human. As for the experimental part:
Representative pancreatic cancer cells MiaPaCa-2 (MCT-1: 163 TPM, Expression Atlas) were plated in a 96 well plate at 12,000 cells/well. These cells were then exposed to a 2-fold dilution series of sCD-3BP and free 3BP for different amounts of time (exposure time: 15 minutes, 30 minutes, 1 hour, 2 hours, 4 hours and 8 hours) and their outcome recorded by Incucyte® Live-Cell Analysis Systems, over 36 hours. After the desired timed exposure, cells were washed with PBS and fresh media was added to ensure no more drug persisted in the respective wells. […] The IC50 of both agents was calculated to be 84-90 uM when cells were exposed to the drug for only 15 minutes. […] While treated cells looked initially healthy following drug washout, cell death became discernable 24 hours post exposure.

Another series has as its target T1, MCT-1 (Homo sapiens, UniProt P53985).
T1 construct: endogenous in cells
T1 sequence (P53985 1-500): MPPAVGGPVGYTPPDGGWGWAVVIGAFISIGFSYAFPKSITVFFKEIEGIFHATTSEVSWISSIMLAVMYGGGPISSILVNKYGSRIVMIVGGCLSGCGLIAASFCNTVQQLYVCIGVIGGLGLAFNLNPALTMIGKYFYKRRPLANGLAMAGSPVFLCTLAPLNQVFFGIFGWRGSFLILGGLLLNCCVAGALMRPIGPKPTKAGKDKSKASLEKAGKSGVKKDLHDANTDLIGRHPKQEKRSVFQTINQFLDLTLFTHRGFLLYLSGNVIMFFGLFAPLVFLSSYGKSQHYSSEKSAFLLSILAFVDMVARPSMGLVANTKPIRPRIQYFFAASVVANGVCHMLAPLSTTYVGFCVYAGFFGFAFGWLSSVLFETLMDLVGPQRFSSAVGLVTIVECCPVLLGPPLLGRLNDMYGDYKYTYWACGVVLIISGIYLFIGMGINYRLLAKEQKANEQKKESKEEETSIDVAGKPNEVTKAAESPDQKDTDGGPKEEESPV
T1 sequence (P35613 140-385 partner limits assumed): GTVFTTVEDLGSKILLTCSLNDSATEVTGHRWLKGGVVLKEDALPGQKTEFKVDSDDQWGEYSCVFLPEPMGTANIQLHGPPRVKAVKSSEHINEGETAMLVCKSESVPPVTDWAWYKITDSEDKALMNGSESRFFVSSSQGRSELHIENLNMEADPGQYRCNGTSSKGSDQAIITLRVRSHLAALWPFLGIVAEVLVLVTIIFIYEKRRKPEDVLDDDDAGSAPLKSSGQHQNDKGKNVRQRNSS
The series is classed as cell-based. The text has this:
To gain insight into this lack of sensitivity, the expression levels of three cell surface channels, GLUT-1 (Yu, M. et al. The prognostic value of GLUT1 in cancers: a systematic review and meta-analysis. Oncotarget 8, 43356-43367, doi:10.18632/oncotarget.17445 (2017)), MCT-1 and MCT-4 (Hong, C. S. et al. MCT1 Modulates Cancer Cell Pyruvate Export and Growth of Tumors that Co-express MCT1 and MCT4. Cell Reports 14, 1590-1601, doi:10.1016/j.celrep.2016.01.057 (2016)) were compared in all 7 pancreatic cancer cell lines using RNA expression atlas (FIG. 4A). While neither GLUT1 (primarily responsible for glucose uptake and therefore, the FDG-PET positive phenotype) nor MCT-4 expression levels of CFPAC-1 were lower than other cell lines in the panel, expression levels of MCT-1 in CFPAC-1 (22 TPM) was nearly three-fold lower than the next lowest expressor (BxPC-3, 64 TPM) in the cell line panel (FIG. 4B). […]

With `O=C(O)C(=O)CBr` [3BP, 3-bromopyruvate], the “stability / protection against degradation in sera” value is “rapidly degraded” in series [1] (listed as Free 3BP) and “rapid degradation” in series [1] (listed as free 3BP). For the same compound, in the series on DLD-1 parental cells, the cell death result is listed as “dramatic cell death”. Also, in the series with DLD-1 MCT-1(-) cells, the loss of viability entry is listed as “no loss of viability”. Also, in the series with MiaPaCa-2 cells, the “potency at killing MiaPaCa-2 cells, sCD-3BP compared with 3BP” value was “equally potent”.

Consider `Cc1[nH]nc(C(F)(F)F)c1Cc1sc2c(c1C(=O)N1C[C@](C)(O)CO1)c(=O)n(C)c(=O)n2C(C)C` [AZD3965], for which the “rescue of cells from CD-3BP mediated cytotoxicity” value at MCT-1 was “clear dose dependent rescue”.
